{"source": "paper PMC10786919", "about": "“Design-rules for stapled peptides with in vivo activity and their application to Mdm2/X antagonists” (Nature Communications, 2024)", "key": {"[1]": {"test_system": "CellSensor p53RE-bla HCT-116 Cell Line", "conditions": "HCT116", "outline": "(§1)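 Compound dilution series (10 points, 3-fold, 10 mM top stock in DMSO) tested on overnight-plated Ca Ski cells in RPMI1640/10% FBS and on blasticidin-selected p53RE-bla HCT-116 cells in McCoy's 5A; read-out was CellTiter-Glo 2.0 luminescence after room-temperature equilibration.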"}, "Ca Ski cell line": {"test_system": "Ca Ski cell line", "outline": "as §1"}, "[2]": {"test_system": "p53 responsive β-lactamase reporter in HCT116 cells", "test": "cells", "assay_type": "cell-based", "outline": "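Read-out used the ToxBLAzer Dual Screen for β-lactamase driven by a stably integrated p53-responsive reporter. Assay: 8000 HCT116 cells per well at 0.5% final DMSO. Reported numbers are geometric means over a minimum of three biological replicates.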"}, "[3]": {"test_system": "cells transiently transfected with the NanoLuc-HaloTag vector", "test": "Nanoclick permeability assay", "conditions": "4Hr", "outline": "(§2)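 Azido-peptide permeability was read as loss of NanoBRET signal (donor 450 nm, acceptor 610 nm) after adding NanoBret618-azide at 10 μM final.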"}, "[4]": {"test": "Nanoclick permeability assay", "outline": "as §2"}, "[5]": {"test": "Circular dichroism (CD) helicity", "assay_type": "physicochemical", "outline": "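Helicity was estimated by CDNN deconvolution of mean residue ellipticity from 190–300 nm spectra taken at 25 °C (0.2 cm path). Samples were 1 mM peptide in 1 mM HEPES pH 7.4/5% methanol, quantified by 280 nm absorbance; values are means of at least duplicate measurements.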"}, "HCT116 cells": {"test_system": "HCT116 cells", "test": "Lactate dehydrogenase (LDH) release assay", "assay_type": "cell-based", "outline": "(§3)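 HCT116 cells stably carrying a p53-responsive β-lactamase reporter, seeded at 8000 cells/well, exposed to compound with 0.5% final DMSO. LDH release read with the CytoTox-ONE membrane integrity kit. Values are geometric means of at least three biological replicates.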"}, "[6]": {"test": "Lactate dehydrogenase (LDH) release assay", "assay_type": "cell-based", "outline": "as §3"}}, "note": "Values joined by “and” are separate entries in the source; they are usually repeats but may differ in a detail not shown here. Identical values can stand only once. Like-named read-outs stand apart in the source and are kept apart here. Positions of bridges follow the written chain, without caps; N, C: chain ends. Non-standard residues stand in square brackets, D forms with d. Residues, ends and D or L forms follow the SMILES beside them. dPhe(4-CF3) = N[C@H](Cc1ccc(C(F)(F)F)cc1)C(=O)O; dTrp(6-F) = N[C@H](Cc1c[nH]c2cc(F)ccc12)C(=O)O; Lys(N3) = [N-]=[N+]=NCCCC[C@H](N)C(=O)O; R8 = C=CCCCCCC[C@@](C)(N)C(=O)O; Cba = N[C@@H](CC1CCC1)C(=O)O; R5 = C=CCCC[C@@](C)(N)C(=O)O; S5 = C=CCCC[C@](C)(N)C(=O)O; βAla = NCCC(=O)O"}
{"smiles": "CC(=O)N[C@@H](CCCCN=[N+]=[N-])C(=O)NCCC(=O)N[C@@H](CC(N)=O)C(=O)N[C@H](C(=O)N[C@@H](Cc1ccccc1)C(=O)N[C@]1(C)CCCCCCC=CCCC[C@@](C)(C(=O)N[C@@H](CC(N)=O)C(=O)N[C@@H](CC(N)=O)C(=O)N[C@@H](CC(N)=O)C(N)=O)NC(=O)[C@H](CC2CCC2)NC(=O)[C@H](CCC(N)=O)NC(=O)[C@H](CC(N)=O)NC(=O)[C@H](Cc2c[nH]c3ccccc23)NC(=O)[C@H](Cc2ccc(O)cc2)NC(=O)[C@H](CC(N)=O)NC1=O)[C@@H](C)O", "note": "[MP-359, azide-ATSP-7041 (L1N, E5N, A8N, S12N, A13N, A14N)] (Ac-[Lys(N3)][βAla]NTF[R8]NYWNQ[Cba][S5]NNN-NH2; staple 6-13)", "values": [{"measurement": "EC50", "setting": "[1]; read-out: Cell Proliferation assay EC50, p53 WT", "result": 27.1, "unit": "µM"}, {"measurement": "EC50", "setting": "Ca Ski cell line; read-out: Cell Proliferation assay EC50, p53 Mut, Ca-Ski", "result": "> 49.8", "unit": "µM"}, {"measurement": "EC50", "setting": "[2]; 0% FBS 4Hr, read-out: p53 reporter assay: EC50", "result": 32.2, "unit": "µM"}, {"measurement": "Nanoclick permeability assay % Effect", "setting": "[3]", "result": 112.9, "unit": "%"}, {"measurement": "cell entry EC50", "setting": "[4]", "result": 0.38, "unit": "µM"}, {"measurement": "CD % Helicity", "setting": "[5]", "result": 39.55, "unit": "%"}, {"measurement": "LDH: Cytotoxicity assay: % Effect", "setting": "HCT116 cells; 0% FBS 4Hr", "result": -2.842, "unit": "%"}, {"measurement": "EC50", "setting": "[6]; 0% FBS 4Hr, read-out: LDH: Cytotoxicity assay: EC50", "result": "> 50.6", "unit": "µM"}]}
{"smiles": "CC(=O)N[C@@H](C(=O)N[C@H](C)C(=O)N[C@H](Cc1c[nH]c2cc(F)ccc12)C(=O)N[C@H](Cc1ccc(O)cc1)C(=O)N[C@H](C)C(=O)N[C@]1(C)CCCC=CCCC[C@](C)(C(=O)N[C@H](CC(C)C)C(=O)N[C@H](CO)C(=O)N[C@H](C)C(=O)N[C@H](C)C(=O)N[C@H](C)C(=O)N[C@H](C)C(=O)N[C@H](C)C(=O)N[C@H](C)C(N)=O)NC(=O)[C@@H](CCC(N)=O)NC(=O)[C@@H](CCC(=O)O)NC(=O)[C@@H](Cc2ccc(C(F)(F)F)cc2)NC1=O)[C@H](C)O", "note": "[MP-042] (Ac-[dT][dA][dTrp(6-F)][dY][dA][R5][dPhe(4-CF3)][dE][dQ][R5][dL][dS][dA][dA][dA][dA][dA][dA]-NH2; staple 6-10)", "values": [{"measurement": "EC50", "setting": "[1]; read-out: Cell Proliferation assay EC50, HCT116, p53 WT", "result": 4.24, "unit": "µM"}, {"measurement": "EC50", "setting": "[1]; read-out: Proliferation EC50 HCT116 (On-target)", "result": 1.5, "unit": "µM"}, {"measurement": "EC50", "setting": "Ca Ski cell line; read-out: Cell Proliferation assay EC50, Ca-Ski, p53 Mut, Ca-Ski", "result": 32, "unit": "µM"}, {"measurement": "EC50", "setting": "Ca Ski cell line; read-out: Proliferation EC50 Ca Ski (Off-target), Ca Ski", "result": 31, "unit": "µM"}, {"measurement": "p53 reporter assay % Effect", "setting": "[2]; 0% FBS 4Hr", "result": 91.28, "unit": "%"}, {"measurement": "EC50", "setting": "[2]; 0% FBS 4Hr, read-out: p53 reporter assay EC50", "result": 0.612, "unit": "µM"}, {"measurement": "p53 reporter assay % Effect", "setting": "[2]; 10% FBS 16Hr", "result": 98.03, "unit": "%"}, {"measurement": "EC50", "setting": "[2]; 10% FBS 16Hr, read-out: p53 reporter assay EC50", "result": 0.284, "unit": "µM"}, {"measurement": "overall improvement of cellular activity compared to initial parent peptide (MP-769)", "setting": "[2]; 10% serum, 16-hour", "result": "> 178", "unit": "fold"}, {"measurement": "EC50", "setting": "[2]; read-out: Cell EC50 (4 hr, 0% FBS), p53 reporter assay, 4 hr, 0% FBS", "result": 0.6, "unit": "µM"}, {"measurement": "EC50", "setting": "[2]; read-out: Cell EC50 (16 hr, 10% FBS), p53 reporter assay, 16 hr, 10% FBS", "result": "0.28 µM and 0.3 µM"}, {"measurement": "Nanoclick permeability assay % Effect", "setting": "[3]", "result": 1.941, "unit": "%"}, {"measurement": "cell entry EC50", "setting": "[4]", "result": "> 10", "unit": "µM"}, {"measurement": "CD % Helicity", "setting": "[5]", "result": 57.4, "unit": "%"}, {"measurement": "LDH: Cytotoxicity assay % Effect", "setting": "HCT116 cells; 0% FBS 4Hr", "result": 8.154, "unit": "%"}, {"measurement": "LDH: Cytotoxicity assay % Effect", "setting": "HCT116 cells; 10% FBS 16Hr", "result": 15.87, "unit": "%"}, {"measurement": "EC50", "setting": "[6]; 0% FBS 4Hr, read-out: LDH: Cytotoxicity assay EC50", "result": "> 50.7", "unit": "µM"}, {"measurement": "EC50", "setting": "[6]; 10% FBS 16Hr, read-out: LDH: Cytotoxicity assay EC50", "result": "> 50.7", "unit": "µM"}, {"measurement": "EC50", "setting": "[6]; 4 hours, 0% serum, read-out: LDH Cytotoxicity assay EC50", "result": "> 50", "unit": "µM"}]}
